{"source": "patent EP0333356A2", "about": "“Hirudin peptides” (BIOGEN, INC., priority 1988, dated 1989)", "key": {"thrombin": {"target": "T1, thrombin (Homo sapiens, UniProt P00734)", "T1 construct": "pooled, normal human plasma (George King Biomedical, Inc., Overland Park, Kansas); tissue George King Biomedical, Inc; host or cells: pooled normal human plasma", "assay": "activated partial thromboplastin time (APTT) assay of pooled normal human plasma", "type": "biochemical", "conditions": "result in words", "experimental": "Anticoagulant activity was determined by assaying APTT of pooled, normal human plasma (George King Biomedical, Inc., Overland Park, Kansas) (diluted 4:1, v/v, plasma:water) with a Coag-A-Mate 2001 instrument (General Diagnostics, Inc.. Morris Plains, New Jersey). Specifically, diluted plasma was mixed with stock solutions of hirudin peptides at concentrations ranging from 750 µg/ml in water, for non-sulfated hirudin peptides, to 35 µg/ml in water for sulfated hirudin peptides. The plasma and hirudin peptides were mixed to a final volume of 125 µl prior to each APTT determination.\nWe began the APTT assay by adding 92 µl of a crude thromboplastin suspension (General Diagnostics) and 100 µl of 0.3 M calcium chloride reagent to each well of a Coag-A-Mate dish (General Diagnostics) per APTT determination, to a final volume of assay mixture per well of 317 µl. The calcium chloride was prepared fresh prior to each assay. Activation times were constant at 180 sec."}, "bovine plasma thrombin": {"target": "T2, bovine plasma thrombin (Bos taurus, UniProt P00735)", "T2 construct": "bovine plasma thrombin, Calbiochem, Behring Diagnostics, La Jolla, CA; purchased Calbiochem, Behring Diagnostics, La Jolla, CA; host or cells: bovine plasma", "assay": "thrombin-catalyzed hydrolysis of tosyl-Gly-Pro-Arg-p-nitroanilide (Chromozym TH)", "type": "biochemical", "conditions": "4.2 x 10⁻⁶ M to 2.1 x 10⁻⁷ M peptide", "experimental": "We analyzed the hirudin peptides of this invention for inhibition of thrombin-catalyzed hydrolysis of the tripeptidyl p-nitroanilide substrate tosyl-Gly-Pro-Arg-p-nitroanilide (Chromozym TH, Boehringer-Mannheim, Indianapolis, In.) spectrophotometrically at 420 nm on a Cary 219 double-beam spectrophotometer. Reactions were prepared by mixing 10 µl of thrombin solution (bovine plasma thrombin, Calbiochem, Behring Diagnostics, La Jolla, CA, 0.1 mg/ml in 0.1 M Tris-HCl, pH 7.4, 0.15 M NaCl) with 1.0 ml of 0.1 M Tris-HCl, pH 7.4, 0.15 M NaCl buffer. We then added 25 µl of substrate solution (4 mg/ml tosyl-Gly-Pro-Arg-p-nitroanilide in the above buffer) and varying amounts of hirudin₄₅₋₆₄ (as prepared in Example 4) from a 1.0 mg/ml stock solution to a final fixed volume of 1.035 ml, with final concentrations of thrombin and substrate of 2.8 x 10⁻⁸ M and 1.4 x 10⁻⁴ M, respectively."}}, "data": [{"compound": "H-NGDFEEIPEE-OH [des(Tyr-Leu) hirudin₅₃₋₆₂]", "values": [{"measurement": "increase in clotting time (APTT)", "setting": "thrombin", "result": "no comparative increase in clotting time"}, {"measurement": "increase in clotting time (APTT)", "setting": "thrombin; listed as hirudin₅₃₋₆₂", "result": "no reasonable inhibitory activity"}]}, {"compound": "CC[C@H](C)[C@H](NC(=O)[C@H](CCC(=O)O)NC(=O)[C@H](CCC(=O)O)NC(=O)[C@H](Cc1ccccc1)NC(=O)[C@H](CC(=O)O)NC(=O)CNC(=O)[C@H](CC(N)=O)NC(=O)[C@H](CC(N)=O)NC(=O)[C@H](Cc1c[nH]cn1)NC(=O)[C@H](CO)NC(=O)[C@H](CCC(=O)O)NC(=O)[C@@H]1CCCN1C(=O)[C@H](CC(N)=O)NC(=O)[C@@H]1CCCN1C(=O)[C@@H](N)[C@@H](C)O)C(=O)N1CCC[C@H]1C(=O)N[C@@H](CCC(=O)O)C(=O)N[C@@H](CCC(=O)O)C(=O)N[C@@H](Cc1ccc(O)cc1)C(=O)N[C@@H](CC(C)C)C(=O)O", "note": "[hirudin₄₅₋₆₄]", "values": [{"measurement": "inhibitory effect on thrombin-catalyzed hydrolysis of the artificial substrate", "setting": "bovine plasma thrombin", "result": "no measurable inhibitory effect"}]}]}
